Common to all, as to experiment: radiometric filter-binding kinase assay, Kinaseprofiler
Experiment [1] concerns CSNK1G3 (human), Q9Y6M4 [K91E/R174G/E302D]. The note with it: ATP 10 µM.
Experiment [2] relates to AKT3 (human), Q9Y243 [S472D]. The note with it: ATP 45 µM.
Experiment [3] relates to PHKG2 (human), P15735 [F290L]. The note with it: ATP 10 µM.
Experiment [4] relates to ROS1 (human), P08922 [V2262A]. The note with it: ATP 200 µM.
Experiment [5] deals with MAPKAPK5 (human), Q8IW41 [R291E]. The following applies: ATP 15 µM.
Chain of MAPKAPK5 (human), Q8IW41 [R291E] (Q8IW41 whole entry, looked up, stated change not applied): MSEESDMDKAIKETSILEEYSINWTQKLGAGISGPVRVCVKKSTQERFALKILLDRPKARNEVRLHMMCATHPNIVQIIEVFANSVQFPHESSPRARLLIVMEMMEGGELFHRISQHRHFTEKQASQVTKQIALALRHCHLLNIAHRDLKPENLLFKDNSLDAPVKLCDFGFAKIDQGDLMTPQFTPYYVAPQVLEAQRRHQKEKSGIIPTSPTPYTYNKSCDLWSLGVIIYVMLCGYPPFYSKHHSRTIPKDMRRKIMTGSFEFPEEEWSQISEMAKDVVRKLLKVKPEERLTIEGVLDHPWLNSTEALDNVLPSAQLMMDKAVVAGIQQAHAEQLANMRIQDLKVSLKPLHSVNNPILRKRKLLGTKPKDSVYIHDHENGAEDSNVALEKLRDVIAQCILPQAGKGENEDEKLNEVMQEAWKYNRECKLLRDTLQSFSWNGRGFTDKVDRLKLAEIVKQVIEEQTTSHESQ
For experiment [6], the system named is GSK3B (human), P49841 [H350L]. The following applies: ATP 15 µM.
Chain of GSK3B (human), P49841 [H350L] (P49841 whole entry, looked up, stated change not applied): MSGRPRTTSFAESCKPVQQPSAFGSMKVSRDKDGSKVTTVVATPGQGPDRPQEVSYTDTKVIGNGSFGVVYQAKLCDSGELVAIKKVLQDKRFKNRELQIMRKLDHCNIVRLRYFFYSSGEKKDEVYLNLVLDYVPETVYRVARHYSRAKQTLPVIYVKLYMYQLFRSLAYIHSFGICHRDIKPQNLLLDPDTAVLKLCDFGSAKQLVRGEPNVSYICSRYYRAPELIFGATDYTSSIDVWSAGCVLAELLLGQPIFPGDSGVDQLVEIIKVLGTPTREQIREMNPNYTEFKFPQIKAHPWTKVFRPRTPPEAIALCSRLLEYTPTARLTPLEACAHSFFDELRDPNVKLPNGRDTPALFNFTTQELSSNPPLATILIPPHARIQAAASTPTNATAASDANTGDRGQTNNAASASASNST

The structures appear in SMILES notation.

The term residual activity denotes the signal under treatment as a percentage of the control signal.

Chain of ROS1 (human), P08922 [V2262A] (P08922 whole entry, looked up, stated change not applied): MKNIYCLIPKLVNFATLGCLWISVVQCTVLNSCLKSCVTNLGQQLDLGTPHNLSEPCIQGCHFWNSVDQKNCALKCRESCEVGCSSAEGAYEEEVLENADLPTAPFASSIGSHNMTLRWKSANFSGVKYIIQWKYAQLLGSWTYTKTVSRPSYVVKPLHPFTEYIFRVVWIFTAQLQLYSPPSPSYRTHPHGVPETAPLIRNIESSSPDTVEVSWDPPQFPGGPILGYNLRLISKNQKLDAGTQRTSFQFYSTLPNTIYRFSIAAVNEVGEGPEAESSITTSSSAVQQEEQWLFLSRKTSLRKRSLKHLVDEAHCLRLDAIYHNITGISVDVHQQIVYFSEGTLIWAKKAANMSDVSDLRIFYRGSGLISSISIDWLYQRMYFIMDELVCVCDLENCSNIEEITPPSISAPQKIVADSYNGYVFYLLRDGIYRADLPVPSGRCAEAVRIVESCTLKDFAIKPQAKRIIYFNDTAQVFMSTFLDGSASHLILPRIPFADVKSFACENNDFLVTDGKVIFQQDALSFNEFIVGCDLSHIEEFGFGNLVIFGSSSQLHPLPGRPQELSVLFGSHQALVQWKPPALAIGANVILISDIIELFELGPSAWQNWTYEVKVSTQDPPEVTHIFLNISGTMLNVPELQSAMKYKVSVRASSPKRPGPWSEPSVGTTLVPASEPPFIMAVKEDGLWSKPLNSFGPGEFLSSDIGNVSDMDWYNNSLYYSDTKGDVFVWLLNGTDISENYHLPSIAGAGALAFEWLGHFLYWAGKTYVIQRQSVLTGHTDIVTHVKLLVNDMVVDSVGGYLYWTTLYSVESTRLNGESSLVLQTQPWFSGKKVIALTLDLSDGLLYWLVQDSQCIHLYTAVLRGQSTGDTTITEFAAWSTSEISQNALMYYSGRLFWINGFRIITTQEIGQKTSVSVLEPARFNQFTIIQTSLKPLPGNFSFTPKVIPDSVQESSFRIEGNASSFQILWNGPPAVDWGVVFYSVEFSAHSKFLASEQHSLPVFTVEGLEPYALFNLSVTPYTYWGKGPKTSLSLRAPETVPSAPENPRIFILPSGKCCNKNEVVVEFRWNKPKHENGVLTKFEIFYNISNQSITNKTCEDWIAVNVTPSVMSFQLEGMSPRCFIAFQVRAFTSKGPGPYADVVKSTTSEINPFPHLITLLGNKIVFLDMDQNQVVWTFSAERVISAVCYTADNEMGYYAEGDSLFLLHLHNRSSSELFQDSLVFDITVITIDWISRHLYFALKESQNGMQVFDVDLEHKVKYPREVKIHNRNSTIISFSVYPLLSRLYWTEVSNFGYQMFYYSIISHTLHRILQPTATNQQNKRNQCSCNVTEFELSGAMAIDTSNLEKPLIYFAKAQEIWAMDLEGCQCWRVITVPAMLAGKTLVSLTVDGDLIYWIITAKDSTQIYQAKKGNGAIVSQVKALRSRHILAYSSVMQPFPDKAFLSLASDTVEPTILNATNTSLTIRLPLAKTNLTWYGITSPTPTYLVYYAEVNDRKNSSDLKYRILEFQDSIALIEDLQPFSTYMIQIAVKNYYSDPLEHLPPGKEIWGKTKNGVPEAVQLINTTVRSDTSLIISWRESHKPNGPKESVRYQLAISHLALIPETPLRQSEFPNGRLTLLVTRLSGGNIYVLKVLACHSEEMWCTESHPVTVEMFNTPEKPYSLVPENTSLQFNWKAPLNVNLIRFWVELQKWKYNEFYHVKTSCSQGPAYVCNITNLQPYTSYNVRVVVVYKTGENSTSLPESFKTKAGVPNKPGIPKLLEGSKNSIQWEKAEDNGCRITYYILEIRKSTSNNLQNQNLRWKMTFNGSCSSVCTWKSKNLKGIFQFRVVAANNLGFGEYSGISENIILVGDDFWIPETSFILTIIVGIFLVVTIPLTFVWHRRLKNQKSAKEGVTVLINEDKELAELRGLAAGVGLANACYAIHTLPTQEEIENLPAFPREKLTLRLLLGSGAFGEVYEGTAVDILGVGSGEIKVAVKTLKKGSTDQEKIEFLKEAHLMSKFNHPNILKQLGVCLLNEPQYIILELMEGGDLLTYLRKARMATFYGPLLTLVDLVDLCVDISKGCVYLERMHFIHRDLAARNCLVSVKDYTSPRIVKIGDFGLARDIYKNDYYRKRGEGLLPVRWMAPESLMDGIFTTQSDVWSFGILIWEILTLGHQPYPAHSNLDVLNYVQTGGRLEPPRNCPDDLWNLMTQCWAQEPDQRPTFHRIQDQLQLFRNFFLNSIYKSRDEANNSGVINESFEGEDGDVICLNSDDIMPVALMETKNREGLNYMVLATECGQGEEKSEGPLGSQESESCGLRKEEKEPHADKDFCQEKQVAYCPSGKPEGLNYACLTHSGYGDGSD
Chain of PHKG2 (human), P15735 [F290L] (P15735 whole entry F290L, looked up): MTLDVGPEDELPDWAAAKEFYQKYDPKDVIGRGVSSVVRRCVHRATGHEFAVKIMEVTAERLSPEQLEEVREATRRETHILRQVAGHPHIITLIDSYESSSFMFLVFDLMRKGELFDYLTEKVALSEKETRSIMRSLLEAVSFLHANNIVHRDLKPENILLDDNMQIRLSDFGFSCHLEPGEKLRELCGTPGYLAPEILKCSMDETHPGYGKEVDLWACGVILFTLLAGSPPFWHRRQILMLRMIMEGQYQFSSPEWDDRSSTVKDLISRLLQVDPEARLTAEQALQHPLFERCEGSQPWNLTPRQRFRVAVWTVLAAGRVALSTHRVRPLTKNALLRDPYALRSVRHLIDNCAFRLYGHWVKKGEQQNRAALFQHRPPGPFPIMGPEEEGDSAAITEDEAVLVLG
Chain of CSNK1G3 (human), Q9Y6M4 [K91E/R174G/E302D] (Q9Y6M4 whole entry, looked up, stated change not applied): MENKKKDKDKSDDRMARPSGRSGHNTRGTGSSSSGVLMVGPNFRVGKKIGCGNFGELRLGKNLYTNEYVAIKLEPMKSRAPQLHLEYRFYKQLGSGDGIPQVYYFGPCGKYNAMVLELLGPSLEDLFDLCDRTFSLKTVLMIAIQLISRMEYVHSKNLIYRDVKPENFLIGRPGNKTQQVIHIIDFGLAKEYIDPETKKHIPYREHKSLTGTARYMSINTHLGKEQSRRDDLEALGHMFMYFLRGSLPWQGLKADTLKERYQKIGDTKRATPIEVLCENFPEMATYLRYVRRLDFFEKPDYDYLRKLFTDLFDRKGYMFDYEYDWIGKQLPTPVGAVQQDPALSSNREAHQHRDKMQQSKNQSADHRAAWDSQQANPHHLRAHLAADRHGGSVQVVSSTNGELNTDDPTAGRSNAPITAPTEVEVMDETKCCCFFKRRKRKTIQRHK
Chain of AKT3 (human), Q9Y243 [S472D] (Q9Y243 whole entry S472D, looked up): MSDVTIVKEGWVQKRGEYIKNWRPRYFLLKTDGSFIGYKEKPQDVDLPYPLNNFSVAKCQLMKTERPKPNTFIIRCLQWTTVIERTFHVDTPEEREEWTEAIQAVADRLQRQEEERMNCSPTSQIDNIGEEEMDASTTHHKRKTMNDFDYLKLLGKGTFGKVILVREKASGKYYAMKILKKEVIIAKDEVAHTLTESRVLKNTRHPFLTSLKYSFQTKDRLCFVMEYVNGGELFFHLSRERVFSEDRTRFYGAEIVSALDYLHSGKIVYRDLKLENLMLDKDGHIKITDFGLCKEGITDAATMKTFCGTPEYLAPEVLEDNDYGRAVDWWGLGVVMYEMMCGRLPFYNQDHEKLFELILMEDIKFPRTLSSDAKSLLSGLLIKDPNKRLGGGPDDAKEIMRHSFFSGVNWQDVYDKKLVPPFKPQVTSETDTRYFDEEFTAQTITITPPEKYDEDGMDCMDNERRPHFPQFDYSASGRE

As to `O=C1c2ccccc2-c2n[nH]c3cccc1c23`, the residual activity in experiment [1] (compound 1.0 µM) turned out to be 83%; in experiment [1] (compound 10.0 µM), 31%; in experiment [2] (compound 1.0 µM), 89%; in experiment [2] (compound 10.0 µM), 66%; in experiment [3] (compound 1.0 µM), 77%; in experiment [3] (compound 10.0 µM) it was 15%. Moreover, the residual activity was 93% in experiment [4] (compound 1.0 µM); 85% in experiment [4] (compound 10.0 µM); 59% in experiment [5] (compound 1.0 µM); 14% in experiment [5] (compound 10.0 µM); 74% in experiment [6] (compound 1.0 µM); 58% in experiment [6] (compound 10.0 µM).
Turning to `COC(=O)[C@]1(O)C[C@@H]2O[C@@]1(C)n1c3ccccc3c3c4c(c5c6ccccc6n2c5c31)C(=O)NC4`, the residual activity in experiment [3] (compound 1.0 µM) and in experiment [5] (compound 10.0 µM) was 0% in each case.
Regarding `CN[C@@H]1C[C@H]2O[C@@](C)([C@@H]1OC)n1c3ccccc3c3c4c(c5c6ccccc6n2c5c31)C(=O)NC4`, the residual activity turned out to be 95% in experiment [1] (compound 1.0 µM), 52% in experiment [1] (compound 10.0 µM) and 0% in experiment [2] (compound 10.0 µM).
As to `O=C(Nc1cccc(Nc2nccc(Nc3cccc(C(F)(F)F)c3)n2)c1)C1CC1`, the residual activity in experiment [3] (compound 10.0 µM) was 100%.
On to `O=C1Nc2ccccc2/C1=C1\Nc2ccccc2\C1=N/O`, for which the residual activity in experiment [1] (compound 1.0 µM) is 63%; in experiment [1] (compound 10.0 µM), 20%; in experiment [2] (compound 1.0 µM), 95%; in experiment [2] (compound 10.0 µM) it was 64%; in experiment [3] (compound 1.0 µM), 25%; in experiment [3] (compound 10.0 µM), 12%. Also, the residual activity worked out at 105% in experiment [4] (compound 1.0 µM); 88% in experiment [4] (compound 10.0 µM); 78% in experiment [5] (compound 1.0 µM); 24% in experiment [5] (compound 10.0 µM); 10% in experiment [6] (compound 1.0 µM); 1% in experiment [6] (compound 10.0 µM).

For the origin of these results see the kinase profiling compilation of Christmann-Franck et al. (2016).
